Test system: acidic gastric secretion
Assay: inhibition of the acidic gastric hypersecretion induced by histamine in dogs (gastric fistula and Haidenhain pouche)
Format: in vivo, mongrel dogs
Conditions: mean of four dogs; for % inhibition of the acidic gastric secretion over the controls in the H.P.: histamine 160 μg kg^-1 h^-1, denervated Haidenhain pouche; for % inhibition of the acidic gastric secretion over the controls in the G.F.: histamine 160 μg kg^-1 h^-1, innervated gastric fistula (main stomach)
Method: In the actual practice, the gastric antisecretory properties were evaluated on the basis of their effectiveness in inhibiting the hyperacidity induced by hystamine in dogs. Hystamine, which is a potent stimulator of the acidic gastric secretion (see Bertaccini et al. Eur. Journ. Pharmacol., 28, 360, 1974), was administered intravenously by continuous infusion during the experiments.
A group of four mongrel dogs weighing approximately 20 Kg was used in each experiments.
The dogs were surgically operated in the stomachs according to the method described by Bertaccini et al. (see above), in order to provide each animal with an innervated gastric fistula (G.F.) or main stomach, and a denervated Haidenhain pouche (H.P.).
The main stomach and the Haidenhain pouche were each equipped with a cannula in order to allow the gastric juices to drain to the exterior by gravity. The two surgically prepared cavities allow to determine if the antisecretory effect has to be ascribed to a direct action of the tested compounds on the oxyntic cells ie., the cells of the gastric walls secreting acidity, (inhibition of the hyperacidity produced both by G.F. and H.P.) or if it is mediated by the autonomous nervous system (inhibition of the hyperacidity produced only by G.F.). After a period of four to five weeks which was allowed to the animals for recovery, the dogs were administered intravenously with histamine in the amount of 160 micrograms of hystamine per kg. of body weight per hour (160 μg-kg^-1 h^-1) in order to stimulate the acidic secretion both in the G.F. and in the H.P. The maximum secretory effect was reached after approximately 1 hour and the infusion of histamine was prolonged for approximately three further hours. During the whole period of infusion, the acidic output was collected every ten minutes and titrated by means of NaOH 0.1 to pH 7.0 on an automatic titrator (Radiometer, Copenhagen). The so-obtained values (mean of four dogs) were considered as the "control values". Food, but not water, was withheld 18 hours before each experiments. At the beginning, the dogs were administered with 160 μg kg^-1 h^-1 of histamine. After reaching the maximum secretory value ie., approximately after 1 hour, the compound to be tested was administered intravenously at predetermined dosages per kg. of body weight during one hour, while the infusion of histamine at the above dosage was carried on. During this period the acidic output both from the G.F. and H.P. was collected every ten minutes and titrated as described above.
By means of the so obtained values (mean of four dogs) and the corresponding "control values" ie., the values obtained by determining the acidic output for one hour after the maximum secretory effect due to histamine was reached, it was possible to establish, by obvious calculations, the percent inhibition of the acidic gastric secretion both from the G.F. and the H.P. of the tested compounds versus the controls.
Representative experiments have shown that dosages varying from about 50 to about 100 μg/kg hour practically block the gastric hyperacidity induced by histamine both in the G.F. and in the H.P. This can be seen from the following table, wherein the results obtained by testing the compound of example 2 having [α]D^20 =-77.7 (c=0.67% in CHCl3) and the compound of example 5 having [α]D^20 =-45 (c=0.46% in CHCl3) are reported: […]

[1] = 10 μg kg^-1 h^-1, intravenous during one hour
[2] = 25 μg kg^-1 h^-1, intravenous during one hour
[3] = 50 μg kg^-1 h^-1, intravenous during one hour
[4] = 100 μg kg^-1 h^-1, intravenous during one hour

## CCCCC(OC)C(O)/C=C/[C@H]1[C@H](O)CC(=O)[C@@H]1C/C=C\CCCC(=O)OC (single isomer, unassigned) [Example 2, 11α, 15-Dihydroxy-16-methoxy-9-oxo-prosta-5(Z),13(E)-diene-1-oic-acid methyl esters]
[1]
  % inhibition of the acidic gastric secretion over the controls in the H.P.: 25%
  % inhibition of the acidic gastric secretion over the controls in the G.F.: 25%
[2]
  % inhibition of the acidic gastric secretion over the controls in the H.P.: 50%
  % inhibition of the acidic gastric secretion over the controls in the G.F.: 50%
[3]
  % inhibition of the acidic gastric secretion over the controls in the H.P.: 95%
  % inhibition of the acidic gastric secretion over the controls in the G.F.: 95%

## CCCCC(C)(OC)C(O)/C=C/[C@H]1[C@H](O)CC(=O)[C@@H]1C/C=C\CCCC(=O)OC (single isomer, unassigned) [Example 5, 11α,15-Dihydroxy-16-methyl-16-methoxy-9-oxo-prosta-5(Z), 13(E)-diene-1-oic acid methyl esters]
[1]
  % inhibition of the acidic gastric secretion over the controls in the H.P.: 20%
  % inhibition of the acidic gastric secretion over the controls in the G.F.: 20%
[3]
  % inhibition of the acidic gastric secretion over the controls in the H.P.: 55%
  % inhibition of the acidic gastric secretion over the controls in the G.F.: 55%
[4]
  % inhibition of the acidic gastric secretion over the controls in the H.P.: 100%
  % inhibition of the acidic gastric secretion over the controls in the G.F.: 100%

Source: patent publication US4201865A, “Novel prostaglandin analogues” (Gruppo Lepetit S.p.A., priority 1978, dated 1980)
